The values that follow come from patent publication US4183929A, “Tri-substituted triazines” (American Cyanamid Company, priority 1978, dated 1980).

Where only a bound is given, the exact number is not on record here.

Assay [1] has as its system late components of human complement (C3-C9). The experiment in a line: Test, Code 035 (C3-C9 inhibitor), lysis of EAC 142. To be noted: Table I; twofold serial dilution. Type of assay: biochemical. From the text:
(§1) An active inhibitor protects C2 from C1 and C4; (ii) Test, Code 035 (C3-C9 inhibitor) - This test determines the ability of the late components of human complement (C3-C9) to lyse EAC 142 in the presence of appropriate dilutions of the test compound. An active inhibitor protects EAC 142 from lysis by human C3-C9; (iii) Test, Code 036 (C-Shunt inhibitor) - In this test human erythrocytes rendered fragile are lysed in autologous serum via the shunt pathway activated by cobra venom factor in the presence of appropriate dilutions of the test compound. Inhibition of the shunt pathway results in failure of lysis; (iv) Forssman Vasculitis Test - Here, the well known complement dependent lesion, Forssman vasculitis, is produced in guinea pigs by intradermal injection of rabbit anti-Forssman antiserum. The lesion is measured in terms of diameter, edema and hemorrhage and the extent to which a combined index of these is inhibited by prior intraperitoneal injection of the test compound at 200 mg is then reported, unless otherwise stated; (v) Forssman Shock Test--Lethal shock is produced in guinea pigs by an i.v. injection of anti-Forssman antiserum and the harmonic mean death time of treated guinea pigs is compared with that of simultaneous controls; (vi) Complement Level Reduction Test - In this test, the above dosed guinea pigs, or others, are bled for serum and the complement level is determined in undiluted serum by the capillary tube method of U.S. Pat. No. 3,876,376 and compared to undosed control guinea pigs; and (vii) Cap 50 Test - Here, appropriate amounts of the test compound are added to a pool of guinea pig serum in vitro, after which the undiluted serum capillary tube assay referred to above is run. The concentration of compound inhibiting 50% is reported.

Assay [2] has as its system citrated sheep plasma (CSP). Description: In vitro anti-coagulant activity (AC) test. In kind it is biochemical. To be noted: for AC Wells: Table I, twofold serial dilution, recalcified citrated sheep plasma; for In Vitro Activity Anti-Coagulant Activity (Wells) AC: Table II. As to the method:
The sheep RBC's, kept in suspension throughout the slotting incubation time, become enmeshed in the fibrin matrix if a clot forms. Upon centrifugation of the plate, untrapped RBC's form buttons, the sizes of which correspond to the degree of clot inhibition; this providing a measure of anti-coagulant activity (AC).

The target in assay [3] is T1, activated human C1 (Homo sapiens, UniProt P09871).
T1 construct: fluid-phase human C2 consumption with C4 present
T1 sequence (P09871 16-688): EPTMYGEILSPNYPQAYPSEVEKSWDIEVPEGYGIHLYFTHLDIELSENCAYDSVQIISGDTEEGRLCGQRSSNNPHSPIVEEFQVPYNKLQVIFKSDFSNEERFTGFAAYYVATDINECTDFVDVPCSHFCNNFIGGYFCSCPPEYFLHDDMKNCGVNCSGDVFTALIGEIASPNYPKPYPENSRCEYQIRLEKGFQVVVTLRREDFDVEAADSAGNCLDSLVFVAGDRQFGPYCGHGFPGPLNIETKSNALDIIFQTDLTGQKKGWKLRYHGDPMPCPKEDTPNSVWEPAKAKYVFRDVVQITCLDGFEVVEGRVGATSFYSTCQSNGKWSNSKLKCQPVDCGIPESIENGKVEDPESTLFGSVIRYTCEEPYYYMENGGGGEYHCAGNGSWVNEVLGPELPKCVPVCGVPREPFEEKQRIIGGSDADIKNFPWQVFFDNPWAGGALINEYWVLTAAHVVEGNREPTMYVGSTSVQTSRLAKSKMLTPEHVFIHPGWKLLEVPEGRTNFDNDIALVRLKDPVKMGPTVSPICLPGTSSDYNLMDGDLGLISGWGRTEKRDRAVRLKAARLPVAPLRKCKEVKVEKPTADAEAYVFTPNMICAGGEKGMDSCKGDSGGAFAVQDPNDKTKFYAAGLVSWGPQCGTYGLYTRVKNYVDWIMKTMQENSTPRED
T1 sequence (P00736 18-705 partner): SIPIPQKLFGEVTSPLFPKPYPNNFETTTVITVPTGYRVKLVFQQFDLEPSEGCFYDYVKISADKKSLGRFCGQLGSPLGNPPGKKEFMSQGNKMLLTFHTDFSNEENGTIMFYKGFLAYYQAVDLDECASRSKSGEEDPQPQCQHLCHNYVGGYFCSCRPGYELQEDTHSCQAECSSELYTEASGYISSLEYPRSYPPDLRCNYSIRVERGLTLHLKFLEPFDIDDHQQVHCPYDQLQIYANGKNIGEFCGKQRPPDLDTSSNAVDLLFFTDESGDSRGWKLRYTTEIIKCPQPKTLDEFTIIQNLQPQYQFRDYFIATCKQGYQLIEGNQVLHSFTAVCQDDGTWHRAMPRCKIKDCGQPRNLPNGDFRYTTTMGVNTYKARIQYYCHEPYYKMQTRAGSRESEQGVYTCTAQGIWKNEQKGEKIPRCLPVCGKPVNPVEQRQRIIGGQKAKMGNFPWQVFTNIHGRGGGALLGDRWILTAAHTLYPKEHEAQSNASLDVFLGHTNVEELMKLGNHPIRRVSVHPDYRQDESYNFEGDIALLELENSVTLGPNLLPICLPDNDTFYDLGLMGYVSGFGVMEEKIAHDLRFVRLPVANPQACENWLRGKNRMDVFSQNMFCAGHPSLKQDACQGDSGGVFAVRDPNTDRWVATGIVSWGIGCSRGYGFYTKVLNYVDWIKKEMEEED
T1 sequence (P02745 23-245 partner): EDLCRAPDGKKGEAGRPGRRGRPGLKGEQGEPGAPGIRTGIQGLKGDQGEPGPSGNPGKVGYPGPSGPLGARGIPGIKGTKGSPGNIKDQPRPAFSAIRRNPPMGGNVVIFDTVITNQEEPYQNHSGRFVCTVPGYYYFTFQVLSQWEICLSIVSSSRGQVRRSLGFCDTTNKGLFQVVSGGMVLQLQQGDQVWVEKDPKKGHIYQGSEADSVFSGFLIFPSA
T1 sequence (P02746 28-253 partner): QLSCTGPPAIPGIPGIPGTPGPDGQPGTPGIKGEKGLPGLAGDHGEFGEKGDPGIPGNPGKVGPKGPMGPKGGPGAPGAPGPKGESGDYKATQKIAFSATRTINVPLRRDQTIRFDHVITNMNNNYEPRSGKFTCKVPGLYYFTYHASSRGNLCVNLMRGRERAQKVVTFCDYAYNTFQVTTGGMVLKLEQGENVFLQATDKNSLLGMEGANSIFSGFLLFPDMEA
T1 sequence (P02747 29-245 partner): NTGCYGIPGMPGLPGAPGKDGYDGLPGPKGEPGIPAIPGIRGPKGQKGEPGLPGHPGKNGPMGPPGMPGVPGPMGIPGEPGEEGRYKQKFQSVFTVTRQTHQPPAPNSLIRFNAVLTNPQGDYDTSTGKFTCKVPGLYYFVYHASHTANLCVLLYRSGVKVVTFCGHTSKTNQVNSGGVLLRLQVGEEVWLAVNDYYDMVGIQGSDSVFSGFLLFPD
The experiment in a line: Test, Code 026 (C1 inhibitor). In kind it is biochemical. To be noted: for Cl 026 Wells: Table I, twofold serial dilution, higher well number indicates higher activity; for In Vitro Activity Complment Inhibiting Activity (Wells) Code 026: Table II.
Source text: as §1

For assay [4], the system named is shunt pathway. Description: Test, Code 036 (C-Shunt inhibitor), lysis of human erythrocytes via cobra venom factor activated shunt pathway. In kind it is cell-based. Conditions: Table I; twofold serial dilution. From the text:
An active inhibitor protects C2 from C1 and C4; (ii) Test, Code 035 (C3-C9 inhibitor) - This test determines the ability of the late components of human complement (C3-C9) to lyse EAC 142 in the presence of appropriate dilutions of the test compound. An active inhibitor protects EAC 142 from lysis by human C3-C9; (iii) Test, Code 036 (C-Shunt inhibitor) - In this test human erythrocytes rendered fragile are lysed in autologous serum via the shunt pathway activated by cobra venom factor in the presence of appropriate dilutions of the test compound. Inhibition of the shunt pathway results in failure of lysis; (iv) Forssman Vasculitis Test - Here, the well known complement dependent lesion, Forssman vasculitis, is produced in guinea pigs by intradermal injection of rabbit anti-Forssman antiserum. […]

Assay [5] can be described thus: Intrinsic Therapeutic Index (ITI) from Code 026 and AC wells. To be noted: Table II; for Logarithmic Difference Expressed As Wells: Code 026 wells minus AC wells (base 2); for Intrinsic Therapeutic Index: antilogarithm (base 2) of the difference of Code 026 and AC wells. An excerpt:
The computation of an Intrinsic Therapeutic Index (ITI) was devised to correlate the results expressed in wells obtained in the in vitro Code 026 (C1 inhibitor) test and the in vitro anti-coagulant (AC) test into a meaningful value which would aid in the net evaluation of the activity of the compounds of this invention.
The ITI is thus a measure of the separation of anti-complement and anti-coagulant activities; the higher the numerical value the more therapeutically useful the separation of activities.

As for `O=C([O-])c1cc(Nc2nc(Nc3cc(C(=O)[O-])cc(C(=O)[O-])c3)nc(Nc3cc(C(=O)[O-])cc(C(=O)[O-])c3)n2)cc(C(=O)[O-])c1.[Na+].[Na+].[Na+].[Na+].[Na+].[Na+]` [5,5',5"-(s-Triazine-2,4,6-triyltriimino)triisophthalic acid hexasodium salt], in assay [1], the “C-Late 035 Wells” value is listed as “N”. Further, in assay [2], the “AC Wells” value is -2 Wells and the “In Vitro Activity Anti-Coagulant Activity (Wells) AC” value is -2 Wells.

Turning to `O=C([O-])c1cc(Nc2nc(Cl)nc(Nc3cc(C(=O)[O-])cc(C(=O)[O-])c3)n2)cc(C(=O)[O-])c1.[Na+].[Na+].[Na+].[Na+]` [5,5'-[(6-Chloro-s-triazine-2,4-diyl)diimino]-diisophthalic acid tetrasodium salt], in assay [3], the “Cl 026 Wells” value is “+3 Wells” and the “In Vitro Activity Complment Inhibiting Activity (Wells) Code 026” value was “+3 Wells”. Besides, the “C-Late 035 Wells” value in assay [1] is “N”. Besides, in assay [4], the “Shunt Inhibition 036 Wells” value was “N”. Besides, in assay [2], the “AC Wells” value was less than -2 Wells and the “In Vitro Activity Anti-Coagulant Activity (Wells) AC” value is on record as -2 Wells. Moreover, in assay [5], the “Logarithmic Difference Expressed As Wells” value is reported as “+5 Wells” and the “Intrinsic Therapeutic Index” value was found to be 32.

As for `O=C(O)CN(CC(=O)O)c1nc(N(CC(=O)O)CC(=O)O)nc(N(CC(=O)O)CC(=O)O)n1` [(s-Triazine-2,4,6-triyltrinitrilo)hexaacetic acid], in assay [3], the “Cl 026 Wells” value is reported as “+3 Wells” and the “In Vitro Activity Complment Inhibiting Activity (Wells) Code 026” value is given as “+3 Wells”. For the same molecule, the “C-Late 035 Wells” value in assay [1] is given as “N”. Further, the “Shunt Inhibition 036 Wells” value in assay [4] is listed as “N”. In assay [2], the “AC Wells” value is recorded as -2 Wells and the “In Vitro Activity Anti-Coagulant Activity (Wells) AC” value is given as -2 Wells. Moreover, in assay [5], the “Logarithmic Difference Expressed As Wells” value was “+5 Wells” and the “Intrinsic Therapeutic Index” value is 32.
